In PubChem BioAssay AID250 (DTP/NCI, 2004):
Several values for one entry are separate records, joined by “and”; a condition that tells them apart may be missing. Equal values may be shown once. Toxic doses and inconclusive results are not listed.

System: BDF1 mice, L1210 leukemia sc, survival T/C
Assay: NCI In Vivo Anticancer Drug Screen. Data for tumor model L1210 Leukemia (subcutaneous) in B6D2F1 (BDF1) mice
Conditions: higher = longer survival
Procedure, shortened: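 Transplantable tumor-bearing mice; survival or tumor size recorded; result = T/C, treated vs vehicle control.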

[1] = endpoint: median survival time, dose: 500.0 mg/kg/injection, schedule: Q01DX Z (sc), vehicle: methylcellulose (MC)
[2] = endpoint: median survival time, dose: 833.0 mg/kg/injection, schedule: Q01DX Z (sc), vehicle: methylcellulose (MC)
[3] = endpoint: median survival time, dose: 108.0 mg/kg/injection, schedule: Q01DX Z (sc), vehicle: methylcellulose (MC)
[4] = endpoint: median survival time, dose: 180.0 mg/kg/injection, schedule: Q01DX Z (sc), vehicle: methylcellulose (MC)
[5] = endpoint: median survival time, dose: 300.0 mg/kg/injection, schedule: Q01DX Z (sc), vehicle: methylcellulose (MC)

N=[N+]=CC(=O)CCC(NC(=O)C(CCC(=O)C=[N+]=N)NC(=O)CCC(N)C(=O)O)C(=O)O (stereo not drawn) was tested, and the T/C (endpoint: median survival time, dose: 0.1 mg/kg/injection, schedule: Q01DX009 (ip), vehicle: water) was 94 % of control, the T/C (endpoint: median survival time, dose: 0.1 mg/kg/injection, schedule: Q01DX009 (sc), vehicle: water) was 95 % of control and 106 % of control and the T/C (endpoint: median survival time, dose: 0.2 mg/kg/injection, schedule: Q01DX009 (ip), vehicle: water) was 94 % of control. The T/C (endpoint: median survival time, dose: 0.2 mg/kg/injection, schedule: Q01DX009 (sc), vehicle: water) was 102 % of control, the T/C (endpoint: median survival time, dose: 0.4 mg/kg/injection, schedule: Q01DX009 (ip), vehicle: water) was 95 % of control and the T/C (endpoint: median survival time, dose: 0.4 mg/kg/injection, schedule: Q01DX009 (sc), vehicle: water) was 103 % of control. The T/C (endpoint: median survival time, dose: 0.8 mg/kg/injection, schedule: Q01DX009 (ip), vehicle: water) was 95 % of control, the T/C (endpoint: median survival time, dose: 0.8 mg/kg/injection, schedule: Q01DX009 (sc), vehicle: water) was 101 % of control and 102 % of control and the T/C (endpoint: median survival time, dose: 1.6 mg/kg/injection, schedule: Q01DX009 (ip), vehicle: water) was 91 % of control. For the same compound, the T/C (endpoint: median survival time, dose: 1.6 mg/kg/injection, schedule: Q01DX009 (sc), vehicle: water) was 103 % of control and 106 % of control.

In the case of CCCCSc1ncnc2nc[nH]c12, the T/C (endpoint: median survival time, dose: 14.0 mg/kg/injection, schedule: Q01DX Z (sc), vehicle: methylcellulose (MC)) is reported as 90 % of control, the T/C (endpoint: median survival time, dose: 23.3 mg/kg/injection, schedule: Q01DX Z (sc), vehicle: methylcellulose (MC)) is reported as 100 % of control and the T/C (endpoint: median survival time, dose: 38.9 mg/kg/injection, schedule: Q01DX Z (sc), vehicle: methylcellulose (MC)) is reported as 104 % of control. The T/C [1] was 113 % of control and the T/C [2] was 100 % of control.

With CC(=O)Nc1ccc2c(Nc3ccc(NS(C)(=O)=O)cc3)c3ccccc3nc2c1 the T/C (endpoint: mean survival time, dose: 1.5 mg/kg/injection, schedule: Q01DX009 (sc), vehicle: saline) was 114 % of control, the T/C (endpoint: mean survival time, dose: 3.0 mg/kg/injection, schedule: Q01DX009 (sc), vehicle: saline) was 111 % of control and the T/C (endpoint: mean survival time, dose: 6.25 mg/kg/injection, schedule: Q01DX009 (sc), vehicle: saline) was 121 % of control. For the same compound, the T/C (endpoint: mean survival time, dose: 12.5 mg/kg/injection, schedule: Q01DX009 (sc), vehicle: saline) was 182 % of control.

In the case of COc1cccc2c1C(=O)c1c(O)c3c(c(O)c1C2=O)CC(O)(C(=O)CO)CC3OC1CC(N)C(O)C(C)O1 (stereo not drawn), the T/C (endpoint: median survival time, dose: 11.4 mg/kg/injection, schedule: Q04DX003 (ip), vehicle: saline) is reported as 87 % of control, the T/C (endpoint: median survival time, dose: 22.8 mg/kg/injection, schedule: Q04DX003 (ip), vehicle: saline) is reported as 89 % of control and the T/C (endpoint: median survival time, dose: 45.6 mg/kg/injection, schedule: Q04DX003 (ip), vehicle: saline) is reported as 90 % of control. The T/C (endpoint: median survival time, dose: 91.2 mg/kg/injection, schedule: Q04DX003 (ip), vehicle: saline) was 95 % of control and the T/C (endpoint: median survival time, dose: 182.4 mg/kg/injection, schedule: Q04DX003 (ip), vehicle: saline) was 103 % of control.

Nc1nc(N)c2cc(CNc3ccc(C(=O)NC(CC(=O)O)C(=O)O)cc3)ccc2n1 (stereo not drawn) was tested, and the T/C (endpoint: median survival time, dose: 0.78 mg/kg/injection, schedule: Q01DX Z (sc), vehicle: saline) was 216 % of control, the T/C (endpoint: median survival time, dose: 1.56 mg/kg/injection, schedule: Q01DX Z (sc), vehicle: saline) was 200 % of control and the T/C (endpoint: median survival time, dose: 3.12 mg/kg/injection, schedule: Q01DX Z (sc), vehicle: saline) was 150 % of control. The T/C (endpoint: median survival time, dose: 6.25 mg/kg/injection, schedule: Q01DX Z (sc), vehicle: saline) was 122 % of control, the T/C (endpoint: median survival time, dose: 6.3 mg/kg/injection, schedule: Q01DX001 (sc), vehicle: saline) was 122 % of control and the T/C (endpoint: median survival time, dose: 12.5 mg/kg/injection, schedule: Q01DX001 (sc), vehicle: saline) was 116 % of control. The T/C (endpoint: median survival time, dose: 12.5 mg/kg/injection, schedule: Q01DX Z (sc), vehicle: saline) was 111 % of control, the T/C (endpoint: median survival time, dose: 25.0 mg/kg/injection, schedule: Q01DX Z (sc), vehicle: saline) was 100 % of control and the T/C (endpoint: median survival time, dose: 50.0 mg/kg/injection, schedule: Q01DX001 (sc), vehicle: saline) was 166 % of control.

For CN(C)c1ccc(Nc2c3ccccc3nc3ccccc23)cc1, the T/C (endpoint: median survival time, dose: 93.0 mg/kg/injection, schedule: Q01DX Z (sc), vehicle: saline) was 104 % of control, the T/C (endpoint: median survival time, dose: 155.0 mg/kg/injection, schedule: Q01DX Z (sc), vehicle: saline) was 113 % of control and the T/C (endpoint: median survival time, dose: 259.0 mg/kg/injection, schedule: Q01DX Z (sc), vehicle: saline) was 109 % of control. For the same compound, the T/C (endpoint: median survival time, dose: 432.0 mg/kg/injection, schedule: Q01DX Z (sc), vehicle: saline) was 113 % of control.

CCCCN(CCCC)P(=O)(N1CC1)N1CC1 was tested, and the T/C (endpoint: median survival time, dose: 1.8 mg/kg/injection, schedule: Q01DX Z (sc), vehicle: saline) was 110 % of control and the T/C (endpoint: median survival time, dose: 3.0 mg/kg/injection, schedule: Q01DX Z (sc), vehicle: saline) was 110 % of control.

For C[C@]12C=CC(=O)C=C1CC[C@@H]1[C@@H]2C(=O)C[C@@]2(C)[C@H]1CC[C@]2(O)C(=O)CO, the T/C (endpoint: median survival time, dose: 25.0 mg/kg/injection, schedule: Q01DX009 (sc), vehicle: water) was 100 % of control, the T/C (endpoint: median survival time, dose: 50.0 mg/kg/injection, schedule: Q01DX009 (sc), vehicle: water) was 100 % of control and the T/C (endpoint: median survival time, dose: 100.0 mg/kg/injection, schedule: Q01DX009 (sc), vehicle: water) was 100 % of control. For the same compound, the T/C [3] was 109 % of control, the T/C (endpoint: median survival time, dose: 140.0 mg/kg/injection, schedule: Q01DX Z (oral), vehicle: water) was 111 % of control and the T/C (endpoint: median survival time, dose: 140.0 mg/kg/injection, schedule: Q02DX Z (sc), vehicle: water) was 122 % of control. The T/C (endpoint: median survival time, dose: 180.0 mg/kg/injection, schedule: Q01DX009 (sc), vehicle: water) was 116 % of control, the T/C [4] was 100 % of control and the T/C (endpoint: median survival time, dose: 180.0 mg/kg/injection, schedule: Q02DX009 (sc), vehicle: steriod suspending solution) was 107 % of control. The T/C (endpoint: median survival time, dose: 180.0 mg/kg/injection, schedule: Q02DX Z (sc), vehicle: steriod suspending solution) was 111 % of control, the T/C (endpoint: median survival time, dose: 200.0 mg/kg/injection, schedule: Q01DX009 (sc), vehicle: water) was 100 % of control and the T/C (endpoint: median survival time, dose: 233.0 mg/kg/injection, schedule: Q01DX Z (oral), vehicle: water) was 111 % of control. For the same compound, the T/C [5] was 109 % of control and 112 % of control, the T/C (endpoint: median survival time, dose: 300.0 mg/kg/injection, schedule: Q02DX009 (sc), vehicle: steriod suspending solution) was 104 % of control and the T/C (endpoint: median survival time, dose: 300.0 mg/kg/injection, schedule: Q02DX Z (sc), vehicle: steriod suspending solution) was 105 % of control. The T/C (endpoint: median survival time, dose: 389.0 mg/kg/injection, schedule: Q01DX Z (oral), vehicle: water) was 116 % of control, the T/C (endpoint: median survival time, dose: 389.0 mg/kg/injection, schedule: Q02DX Z (sc), vehicle: water) was 155 % of control and the T/C (endpoint: median survival time, dose: 400.0 mg/kg/injection, schedule: Q01DX009 (sc), vehicle: water) was 88 % of control and 100 % of control. The T/C [1] was 104 % of control and 112 % of control, the T/C (endpoint: median survival time, dose: 500.0 mg/kg/injection, schedule: Q02DX009 (sc), vehicle: steriod suspending solution) was 101 % of control and the T/C (endpoint: median survival time, dose: 500.0 mg/kg/injection, schedule: Q02DX Z (sc), vehicle: steriod suspending solution) was 100 % of control. The T/C (endpoint: median survival time, dose: 648.0 mg/kg/injection, schedule: Q01DX Z (oral), vehicle: water) was 122 % of control, the T/C (endpoint: median survival time, dose: 800.0 mg/kg/injection, schedule: Q01DX009 (sc), vehicle: water) was 94 % of control and 100 % of control and the T/C [2] was 100 % of control and 112 % of control. The T/C (endpoint: median survival time, dose: 833.0 mg/kg/injection, schedule: Q02DX009 (sc), vehicle: steriod suspending solution) was 103 % of control, the T/C (endpoint: median survival time, dose: 833.0 mg/kg/injection, schedule: Q02DX Z (sc), vehicle: steriod suspending solution) was 105 % of control and the T/C (endpoint: median survival time, dose: 1080.0 mg/kg/injection, schedule: Q01DX Z (oral), vehicle: water) was 111 % of control. The T/C (endpoint: median survival time, dose: 1080.0 mg/kg/injection, schedule: Q02DX Z (sc), vehicle: water) was 155 % of control, the T/C (endpoint: median survival time, dose: 1388.0 mg/kg/injection, schedule: Q02DX009 (sc), vehicle: steriod suspending solution) was 101 % of control and the T/C (endpoint: median survival time, dose: 1388.0 mg/kg/injection, schedule: Q02DX Z (sc), vehicle: steriod suspending solution) was 100 % of control.

CC(C)Sc1nc(N)nc2nc[nH]c12 was tested, and the T/C (endpoint: median survival time, dose: 23.0 mg/kg/injection, schedule: Q01DX Z (sc), vehicle: methylcellulose (MC)) was 100 % of control, the T/C (endpoint: median survival time, dose: 39.0 mg/kg/injection, schedule: Q01DX Z (sc), vehicle: methylcellulose (MC)) was 100 % of control and the T/C (endpoint: median survival time, dose: 65.0 mg/kg/injection, schedule: Q01DX Z (sc), vehicle: methylcellulose (MC)) was 111 % of control. The T/C [3] was 111 % of control, the T/C [4] was 111 % of control and the T/C [5] was 105 % of control. The T/C [1] was 111 % of control.

With CCNC(=O)c1cccnc1 the T/C (endpoint: median survival time, dose: 8.4 mg/kg/injection, schedule: Q01DX Z (sc), vehicle: water) was 100 % of control, the T/C (endpoint: median survival time, dose: 77.8 mg/kg/injection, schedule: Q01DX Z (sc), vehicle: water) was 100 % of control and the T/C (endpoint: median survival time, dose: 130.0 mg/kg/injection, schedule: Q01DX Z (sc), vehicle: water) was 95 % of control. For the same compound, the T/C (endpoint: median survival time, dose: 216.0 mg/kg/injection, schedule: Q01DX Z (sc), vehicle: water) was 100 % of control, the T/C (endpoint: median survival time, dose: 360.0 mg/kg/injection, schedule: Q01DX Z (sc), vehicle: water) was 100 % of control and the T/C (endpoint: median survival time, dose: 600.0 mg/kg/injection, schedule: Q01DX Z (sc), vehicle: water) was 100 % of control. The T/C (endpoint: median survival time, dose: 1000.0 mg/kg/injection, schedule: Q01DX Z (sc), vehicle: water) was 109 % of control.
